Results on three molecules are retold here after patent US20260191986A1, “LIPOSOME-BASED DRUG CARRIER FOR IMMUNE ANTICANCER THERAPY AND METHOD FOR PRODUCING SAME” (KONKUK UNIVERSITY INDUSTRIAL COOPERATION CORP, priority 2022, published 2026).

The subject of data set [1] is 4T1 cells. Briefly: IDO1 and PD-L1 expression under IFNγ stimulation. The class given is cell-based, mouse. The text has this: (§1) ICD-mediated immune response can invalidate the immune evasion mechanism of TME, such as overexpression of the immune checkpoint protein and IDO1. Accordingly, the expression of IDO1 and PD-L1 under IFNγ stimulation was monitored also in MDA-MB-231 and 4T1 cells.
(§2) Subsequently, it was investigated whether the DOX-induced ICD can induce the expression of IDO1 in a breast cancer mouse model as an indicator of the immune evasion mechanism in TME. In order to investigate the relationship between the expression of ICD and IDO1 in TME, the expression level of IDO1 in the tumors obtained by vaccine approach was investigated, and the result is shown in FIG. 4. […] Meanwhile, it was confirmed that the DOX-induced ICD upregulates IDO1 expression in tumor tissues via the immune evasion mechanism.

Data set [2] deals with MDA-MB-231 cells. Nature of the data set: IDO1 and PD-L1 expression under IFNγ stimulation. The data set is classed as cell-based, human.
Text: as §1, §2

The test system of the next data set is breast cancer cells. Nature of the data set: DOX-induced ICD: extracellular ATP release after liposome treatment. The data set is classed as cell-based. Here is the method: Then, DOX-induced ICD was evaluated by monitoring extracellular ATP release and expression of cell surface CRT, which is an ICD marker, and the result is shown in FIG. 14.
A further data set deals with 4T1 breast cancer cells. Nature of the data set: Tumor metastasis to the lung in 4T1 tumor-bearing mice (H&E). The data set is classed as in vivo. The note with it: H&E staining of lung tissue. The text has this:
Finally, it was investigated whether the administration of Aptm [DOX/IDO1] can inhibit tumor metastasis in 4T1 tumor-bearing mice. For detection of metastatic tumors, tumor tissues from the terminal part of the lung of the mice were stained with hematoxylin and eosin (H&E), and the images are shown in FIG. 21. […] Therefore, it was confirmed that the systemic administration of Aptm [DOX/IDO1] through the blood can inhibit tumor metastasis through targeted delivery of an anticancer drug targeting breast cancer cells.

The test system of another data set is 4T1. Nature of the data set: Cytotoxicity (cell survivability). The note with it: 24 hours and 36 hours. The data set is classed as cell-based, mouse. As for the experimental part: (§3) Next, the cytotoxicity by an anticancer agent delivered together with Aptm [DOX/IDO1] was evaluated, and the result is shown in FIG. 16. Breast cancer cells (MDA-MB-231 and 4T1) and control group liver cells (HepG2) were treated with free DOX, Lipm [DOX/IDO1] and Aptm [DOX/IDO1] for 24 hours and 36 hours.

A further data set relates to 4T1 tumor. Nature of the data set: Anticancer efficacy in 4T1 tumor xenograft mice (tumor size). The class given is in vivo. To be noted: i.v. 4 times with 4-day intervals; DOX 0.3 mg/kg, siRNA 0.35 mg/kg; day 24. Here is the method:
In addition, the anticancer efficacy of Aptm [DOX/IDO1] in the 4T1 tumor xenograft mice was investigated by measuring the decrease of tumor size, and the result is shown in FIG. 18. After the tumor size grew to 60-80 mm^3, the mice were divided randomly into 5 groups (5 mice per group) and each reagent was intravenously 4 times with 4-day intervals: saline (control group), free DOX (0.3 mg/kg), Lipm [DOX/IDO1], Aptm [DOX/IDO1] and Aptm [DOX/Ctr], each liposome containing the same amount of DOX (0.3 mg/kg) and siRNA (0.35 mg/kg). […] Morbidity was not observed when the mice were treated with Aptm [DOX/IDO1]. In particular, when the mice were treated with Aptm [DOX/Ctr] containing scrambled siRNA instead of IDO1 siRNA, the tumor size decreased by about 37.0% (vs. saline administration) due to decreased effect of inhibiting tumor growth. That is, the delivered IDO siRNA inhibits tumor growth by controlling TME.

Data set [3] has as its system IDO1. Briefly: IDO1 expression in tumors obtained by vaccine approach. To be noted: mice vaccinated with drug-treated 4T1 cells. The data set is classed as in vivo, Balb/c mice. As for the experimental part:
(§4) The effect of DOX-induced ICD in Balb/c mice was further validated by vaccine approach. Dead 4T1 cells were subcutaneously injected into one flank of Balb/c mice together with an anticancer agent such as DOX (30 μM) or CIS (100 μM), or phosphate-buffered saline (PBS; control), twice for 2 weeks, with a 1-week interval. At two weeks after the first injection, live 4T1 cancer cells were injected into the opposite flank and the change in tumor size was evaluated for 25 days.
as §2

The next data set concerns TNFα. Nature of the data set: TNFα secretion in the tumor of 4T1 tumor xenograft mice. To be noted: mouse, in vivo. As for the experimental part:
As the effect of Aptm [DOX/IDO1] on the control of tumor microenvironment (TME), cell death, ICD marker, immune cell ratio and TNF secretion in the tumor tissue of 4T1 tumor xenograft mice were evaluated. In order to investigate DOX-induced apoptotic cell death, TUNEL assay was conducted with the tumor tissues of 4T1 tumor xenograft mice.
(§5) The effective inhibition of tumor growth improves anticancer immune response by reversing immunosuppressive TME to immunoresponsive TME in vivo by Aptm [DOX/IDO1]. In order to investigate whether tumor size reduction and TME control are mediated by IDO1 siRNA delivered to the 4T1 tumor xenograft mice, the IDO1 expression level in the tumor tissue of the mice was analyzed on day 24, and the result is shown in FIG. 20. The IDO1 expression level in the tumor obtained from the mice treated with free DOX was increased as compared to the IDO1 expression level in the tumor obtained from the mice treated with saline. […] In the tumor, the IDO1 expression was increased by the administration of Aptm [DOX/Ctr] lacking IDO1 siRNA. It is thought that the increased IDO1 expression is due to the improved ICD against the tumor due to the effective delivery of DOX using the CD44/PD-L1 aptamosome. Accordingly, the inhibition of IDO1 in combination with ICD can induce anticancer immune response in the immunoresponsive TME by Aptm [DOX/IDO1].

In the next data set the test system is MDA-MB-231. Nature of the data set: Cytotoxicity (cell survivability). The data set is classed as cell-based, human. To be noted: 24 hours and 36 hours. As for the experimental part: as §3
Data set [4] relates to control group liver cells (HepG2). Briefly: Cytotoxicity (cell survivability). The data set is classed as cell-based. To be noted: 24 hours and 36 hours. As for the experimental part: as §3
The subject of data set [5] is 4T1 cells. Nature of the data set: Intracellular distribution of DOX by confocal microscopy. The data set is classed as cell-based, mouse. As for the experimental part: (§6) In order to investigate the intracellular distribution of DOX and IDO1 siRNA delivered by the CD44/PD-L1 aptamosome, cells were treated with free DOX, Lipm [DOX/IDO1] and Aptm [DOX/IDO1] and analyzed by confocal microscopy with increasing incubation time. […] Nevertheless, a large amount of DOX was delivered easily by Aptm [DOX/IDO1] with the passage of time, and it was gradually delivered into the nucleus of MDA-MB-231 and 4T1 cells within 2 hours.

Data set [6] relates to IDO1. Nature of the data set: IDO1 expression level in tumor tissue of 4T1 tumor xenograft mice. The class given is in vivo. The note with it: day 24. As for the experimental part:
as §5

Data set [7] has as its system MDA-MB-231 cells. Briefly: Extracellularly released ATP (ICD biomarker) after DOX or CIS. The data set is classed as cell-based, human. To be noted: different concentrations of drug. Here is the method: (§7) First, the efficacy of doxorubicin (DOX) as a potent ICD inducer in a breast cancer 4T1 tumor model and cancer cells was tested by monitoring the change in the TME (tumor microenvironment). To validate the immunogenic effect of DOX, immunogenic cell death (ICD) biomarkers, such as extracellularly released ATP and cell surface expressing CRT, were monitored in breast cancer cells (human: MDA-MB-231 cells; mouse: 4T1 cells) treated with different concentrations of DOX and cisplatin (CIS), a non-ICD inducer, as a comparative control group.

Data set [8] relates to 4T1 cells. The description is as above. The data set is classed as cell-based, mouse. The note with it: different concentrations of drug. As for the experimental part: as §7
In data set [9] the test system is 4T1 cells. Nature of the data set: Cell surface CRT expression (ICD biomarker) after DOX or CIS. The data set is classed as cell-based, mouse. To be noted: different concentrations of drug. Here is the method: as §7
In data set [10] the test system is MDA-MB-231 cells. Nature of the data set: Intracellular distribution of DOX by confocal microscopy. The class given is cell-based, human. Here is the method:
as §6

In data set [11] the test system is 4T1 cells. Nature of the data set: Vaccine approach: tumor growth in Balb/c mice vaccinated with drug-treated dead 4T1 cells. The class given is in vivo. The note with it: DOX 30 μM or CIS 100 μM; live 4T1 cells in opposite flank; 25 days. Here is the method: as §4
In data set [12] the test system is MDA-MB-231 cells. Nature of the data set: Cell surface CRT expression (ICD biomarker) after DOX or CIS. The class given is cell-based, human. To be noted: different concentrations of drug. As for the experimental part:
as §7

Take “IFNγ: cytokine used to stimulate IDO1 and PD-L1 expression in cancer cells”: the “expression level of IDO1” value in the data set on 4T1 cells [1] (IFNγ stimulation) and in the data set with MDA-MB-231 cells [2] (IFNγ stimulation) was “significantly upregulated” each time. Besides, the “PD-L1 expression on the cell surface” value with 4T1 cells [1] (IFNγ-treated cells) and in the data set on MDA-MB-231 cells [2] (IFNγ-treated cells) was “highly expressed” in each case.

For the molecule `COc1cccc2c1C(=O)c1c(O)c3c(c(O)c1C2=O)C[C@@](O)(C(=O)CO)C[C@@H]3O[C@H]1C[C@H](N)[C@H](O)[C@H](C)O1` [DOX, doxorubicin], the “extracellular ATP release” value in the data set with breast cancer cells is reported as “A large amount of ATP was released”. Further, in the data set with 4T1 breast cancer cells, the “metastatic tumor in the lung” value is given as “extensive filtration of 4T1 breast cancer cells was observed in the lung”. The cell survivability result (in the data set with 4T1; in the data set on MDA-MB-231; in data set [4]) was “lowest” in each case. Further, the “tumor size decrease as compared to saline” value in the data set on 4T1 tumor was “did not reduce tumor size enough”. Moreover, the “IDO1 protein and mRNA expression in tumor tissues” value with IDO1 [3] was “highest IDO1 protein and mRNA expression”. For the same molecule, in the data set on TNFα, the “TNFα secretion in the tumor” value is given as “relatively low TNFα secretion”. Moreover, the “time until DOX reached the nucleus” value in the data set on 4T1 cells [5] and with MDA-MB-231 cells [10] was “up to 1 hour” in each case. Besides, the “IDO1 expression level in the tumor” value with IDO1 [6] is on record as “increased”. Also, the “level of extracellularly released ATP” value in the data set on MDA-MB-231 cells [7] and with 4T1 cells [8] was “increased gradually with the concentration of DOX” in each case. In addition, the “CRT expression on the cancer cell surface” value in the data set with 4T1 cells [9] and in the data set on MDA-MB-231 cells [12] was “increased gradually as the concentration of DOX increased” each time. For the same molecule, the “tumor growth after vaccination with drug-treated dead 4T1 cells” value in the data set on 4T1 cells [11] is “effectively inhibited tumor growth”.

Turning to `N.N.[Cl][Pt][Cl]` [CIS, cisplatin], the “IDO1 protein and mRNA expression in tumor tissues” value in the data set with IDO1 [3] was “increased expression of IDO1 protein and mRNA”. Further, the “level of extracellularly released ATP” value with MDA-MB-231 cells [7] and in the data set with 4T1 cells [8] was “did not increase the level of extracellular ATP” throughout. Further, the “CRT expression on the cancer cell surface” value in the data set on 4T1 cells [9] and with MDA-MB-231 cells [12] was “did not increase the CRT expression on the cancer cell surface” in each case. Moreover, the “tumor growth after vaccination with drug-treated dead 4T1 cells” value in the data set with 4T1 cells [11] was “did not inhibit tumor growth significantly”.
